# Assays:
# Alpha-glucosidase [1] = target: T1, Alpha-glucosidase (Saccharomyces cerevisiae S288c, UniProt P53341+P38158+P07265); experiment: Inhibition of Saccharomyces cerevisiae alpha-glucosidase by absorbance based microplate reader analysis; assay type: protein assay
# [2] = Inhibition of Saccharomyces cerevisiae alpha-glucosidase type I using p-nitrophenyl-alpha-D-glucopyranoside as substrate preincubated for 10 mins followed by substrate addition and measured after 20 mins by spectrophotometric analysis
# [3] = Inhibition of alpha-glucosidase (unknown origin) using p-NPG as substrate preincubated for 5 mins followed by substrate addition and measured after 30 mins by absorbance based analysis; set-up: species or system Homo sapiens
# Homo sapiens [4] = species on record: Homo sapiens; experiment: Potency index, ratio of acarbose IC50 to test compound IC50 for inhibition of alpha-glucosidase (unknown origin) using p-NPG as substrate preincubated for 5 mins followed by substrate addition and measured after 30 mins by absorbance based analysis; details: time 35.0 min
# [5] = Inhibition of alpha-glucosidase (unknown origin) using p-nitrophenyl glucopyranoside as substrate preincubated for 10 mins followed by substrate addition and measured after 20 mins by spectrophotometric analysis; set-up: species or system Homo sapiens
# Alpha-glucosidase [6] = target: T1, Alpha-glucosidase; experiment: Inhibition of Saccharomyces cerevisiae alpha-glucosidase using p-nitrophenyl-alpha-D-glucopyranoside as substrate preincubated for 15 mins followed by substrate addition and measured by microplate reader analysis; assay type: protein assay
# [7] = target: Alpha-glucosidase (Saccharomyces cerevisiae S288c) (UniProt P53341+P38158+P07265); experiment: Potency index, ratio of acarbose IC50 to test compound IC50 for inhibition of Saccharomyces cerevisiae alpha-glucosidase using p-nitrophenyl-alpha-D-glucopyranoside as substrate preincubated for 15 mins followed by substrate addition and measured by microplate reader analysis; assay type: protein assay
# Alpha-glucosidase [8] = target: T1, Alpha-glucosidase; experiment: Inhibition of Saccharomyces cerevisiae alpha-glucosidase using p-nitrophenyl-alpha-D-glucopyranoside as substrate preincubated for 10 mins followed by substrate addition and measured by spectrophotometric analysis; assay type: protein assay
# Alpha-glucosidase [9] = target: T1, Alpha-glucosidase; experiment: Inhibition of Saccharomyces cerevisiae alpha-glucosidase using p-nitrophenyl-alpha-D-glucopyranoside as substrate assessed as inhibition constant preincubated for 10 mins followed by substrate addition and measured by spectrophotometric analysis; assay type: protein assay
# [10] = Inhibition of alpha-glucosidase (unknown origin) using p-nitrophenyl-alpha-D-glucopyranoside as substrate; set-up: species or system Homo sapiens
# [11] = Competitive inhibition of alpha-glucosidase (unknown origin) using p-nitrophenyl-alpha-D-glucopyranoside as substrate assessed as inhibition constant; set-up: species or system Homo sapiens
# [12] = Inhibition of alpha-glucosidase (unknown origin) using p-nitrophenyl glucopyranoside as substrate preincubated for 10 mins followed by substrate addition and measured after 30 mins by absorbance based analysis; set-up: species or system Homo sapiens
# Homo sapiens [13] = species on record: Homo sapiens; experiment: Potency index, ratio of acarbose IC50 to test compound IC50 for inhibition of alpha-glucosidase (unknown origin) using p-nitrophenyl glucopyranoside as substrate preincubated for 10 mins followed by substrate addition and measured after 30 mins by absorbance based analysis; details: time 40.0 min
# [14] = Inhibition of alpha-glucosidase (unknown origin) using p-nitrophenyl-alpha-D-glucopyranoside as substrate preincubated for 15 mins followed by substrate addition and measured after 30 mins by spectrophotometric analysis; set-up: species or system Homo sapiens
# [15] = Inhibition of alpha-glucosidase (unknown origin) using p-nitro phenyl glucopyranoside as substrate preincubated for 15 mins followed by substrate addition and measured after 30 mins by absorbance based analysis; set-up: species or system Homo sapiens
# [16] = Inhibition of alpha-glucosidase (unknown origin) using p-nitrophenyl-alpha-D-glucopyranoside as substrate preincubated for 15 mins followed by substrate addition and measured after 30 mins by absorbance based analysis; set-up: species or system Homo sapiens
# Alpha-glucosidase [17] = target: T1, Alpha-glucosidase; experiment: Inhibition of Saccharomyces cerevisiae alpha-glucosidase using p-nitrophenyl-alpha-D-glucopyranoside as substrate preincubated for 5 mins followed by substrate addition and measured after 5 mins by spectrophotometric analysis; assay type: protein assay
# Alpha-glucosidase [18] = target: T1, Alpha-glucosidase; experiment: Inhibition of Saccharomyces cerevisiae alpha-glucosidase using p-nitrophenyl-alpha-D-glucopyranoside as substrate preincubated for 15 mins followed by substrate addition and measured after 30 mins by multiplate reader analysis; assay type: protein assay
# Alpha-glucosidase [19] = target: T1, Alpha-glucosidase; experiment: Inhibition of Saccharomyces cerevisiae alpha-glucosidase using p-nitrophenyl-alpha-D-glucopyranoside as substrate preincubated for 15 mins followed by substrate addition and measured after 30 mins by spectrophotometric analysis; assay type: protein assay
# Alpha-glucosidase [20] = target: T1, Alpha-glucosidase; experiment: Non-competitive inhibition of Saccharomyces cerevisiae alpha-glucosidase using p-nitrophenyl-alpha-D-glucopyranoside as substrate assessed as inhibition constant preincubated for 15 mins followed by substrate addition and measured after 30 mins by spectrophotometric analysis; assay type: protein assay
# [21] = Inhibition of alpha-glucosidase (unknown origin) using pNPG as substrate by spectrophotometric analysis; set-up: species or system Homo sapiens
# [22] = Inhibition of alpha-glucosidase (unknown origin) using pNPG as substrate assessed as inhibition constant by spectrophotometric analysis; set-up: species or system Homo sapiens
# Alpha-glucosidase [23] = target: T1, Alpha-glucosidase; experiment: Inhibition of Saccharomyces cerevisiae alpha-glucosidase using pNPG as substrate by spectrophotometric analysis; assay type: protein assay
# [24] = Inhibition of alpha-glucosidase (unknown origin) using pNPG as substrate preincubated for 15 mins followed by substrate addition and measured after 30 mins by microplate reader based analysis; set-up: species or system Homo sapiens
smiles,measurement,setting,value
COc1ccc(/N=C2/NC(=O)/C(=C/c3cn(-c4ccccc4)nc3-c3ccc([N+](=O)[O-])cc3)S2)cc1,IC50,Alpha-glucosidase [1],4.48 µM
Clc1ccc(-n2c(-c3cn(-c4ccccc4)nc3-c3ccc(Br)cc3)nc(-c3ccccc3)c2-c2ccccc2)cc1,IC50,[2],25.2 µM
Cc1ccccc1C(=O)/N=c1\scc(C)n1-c1cc(Cl)c(Cl)cc1Cl,IC50,[3],0.15 µM
same,Ratio IC50,Homo sapiens [4],255
COc1cc(-c2nc3ccccc3[nH]2)ccc1OCc1cn(CC(=O)Nc2cnc(-c3ccccc3)s2)nn1,IC50,[5],6.31 µM
Oc1cc(-c2cc3cccc(Cl)c3o2)cc(O)c1O,IC50,Alpha-glucosidase [6],0.83 µM
same,Ratio IC50,[7],167
O=C1NC(c2ccc(O)cc2)Nc2ccccc21 (stereo unspecified),IC50,Alpha-glucosidase [8],1.35 µM
same,Ki,Alpha-glucosidase [9],0.42 µM
COc1ccc(-c2[nH]c3c(c2CC#N)c(=O)oc2ccccc23)cc1,IC50,[10],48.6 µM
same,Ki,[11],48.6 µM
O=C(NNS(=O)(=O)c1cc(Cl)c(Cl)cc1Cl)c1ccc2[nH]cc(C(c3ccccc3)c3c[nH]c4ccc(C(=O)NNS(=O)(=O)c5cc(Cl)c(Cl)cc5Cl)cc34)c2c1,IC50,[12],0.1 µM
same,Ratio IC50,Homo sapiens [13],8500
Cc1ccc2c(c1)/C(=N/Nc1nc(-c3ccc(O)cc3)cs1)C(=O)N2Cc1cccc(F)c1,IC50,[14],5.36 µM
CCOC(=O)CN1C(=O)S/C(=C/c2ccc(-n3ccc4c(Br)ccnc43)cc2)C1=O,IC50,[15],0.55 µM
O=C1Nc2cc(Br)ccc2/C1=N/Nc1nc(-c2ccc(Br)cc2)cs1,IC50,[16],20.8 µM
CCCSc1nnc(C(C)c2ccc3cc(OC)ccc3c2)n1-c1ccc(Cl)c(Cl)c1 (stereo unspecified),IC50,Alpha-glucosidase [17],1.1 µM
O=C(Cn1cc(Cn2c3ccccc3c3ccccc32)nn1)c1ccc(O)c(Br)c1,IC50,Alpha-glucosidase [18],1 µM
O=C(COc1ccc2ccc(=O)oc2c1)N/N=C1\C(=O)N(Cc2ccccc2F)c2ccc(Cl)cc21,IC50,Alpha-glucosidase [19],2.56 µM
same,Ki,Alpha-glucosidase [20],2.04 µM
Cc1cc(C)cc(CS(=O)(=O)c2ccc(NC(=O)Nc3cccc(Cl)c3)cc2)c1,IC50,[21],0.00905 µM
same,Ki,[22],0.0128 µM
CCn1cc(C(=O)CC(c2ccc3ccccc3c2)C2C(=O)N(C)C(=O)N(C)C2=O)c2ccccc21 (stereo unspecified),IC50,Alpha-glucosidase [23],13.02 µM
COc1ccc(C2NC(=O)c3ccccc3N2)cc1 (stereo unspecified),IC50,Alpha-glucosidase [8],1.15 µM
same,Ki,Alpha-glucosidase [9],0.42 µM
O=C1Nc2ccc(Cl)cc2/C1=C\c1ccc(-c2nnc(-c3cc(O)cc(O)c3)o2)cc1,IC50,[24],1.25 µM

# From ChEMBL document CHEMBL5360534, “Synthetic α-glucosidase inhibitors as promising anti-diabetic agents: Recent developments and future challenges” (Eur J Med Chem, 2023)
